Measurements from patent publication US20260209260A1, “VECTORIZED NHC IRIDIUM(III) COMPLEXES AND USE THEREOF IN PHOTODYNAMIC THERAPY AND/OR DIAGNOSTIC” (CENTRE NATIONAL DE LA RECHERCHE SCIENTIFIQUE, priority 2022, published 2026).
Like-named read-outs stand apart in the source and are kept apart here.

Tests used:
[1] = test system: MC3T3 osteoblast cells (non-tumor); assay: Cell viability assay (MTT), dark and blue light; format: cell-based, Murine; settings: in the dark, 72 h; read-out: GI50 MC3T3 Dark
Procedure: (§1) Cells were grown in humidified incubators at 37° C. in 5% CO2. Murine MC3T3 osteoblast and NIH-3T3 fibroblast cells-used as non-tumor cell models-were cultured in a-MEM medium and DMEM medium supplemented with 10% fetal bovine serum (FBS) and 1% Penicillin/Streptomycin (P/S) antibiotics, respectively. Human T24 bladder, MGHU3 bladder, Scaber bladder, A549 lung, MCF7 breast, MiaPaCa2 pancreas cancer cells were cultured in DMEM medium supplemented with 10% FBS and 1% P/S antibiotics. […] Human Hela cervix and HepG2 liver cancer cells were cultured EMEM medium supplemented with 10% FBS and 1% P/S antibiotics.
(§2) MTT reagent (3-(4,5-dimethylthiazol-2-yl)-2,5-diphenyltetrazolium bromide) was used to determine cell death as originally described by Mosmann. Briefly, cells were seeded from 5,000 to 10,000 cells/well in 24-well plates (1 mL) depending on the cell type and allowed to attach overnight. The complexes were prepared in DMSO. The concentration of the complexes was calculated based on the elemental composition of the complexes determined by the elemental analyses. All cell viability experiments were carried out with a fixed concentration of 0.1% (v/v) DMSO. After 72 h of treatment, cells were incubated at 37° C. and 5% CO2 with 25 μL of MTT solution (5 mg/ml; Sigma-Aldrich) in 24-well plates for 3 to 4 h. After solubilization with 500 μL of DMSO, formazan was quantified spectrophotometrically with a microplate reader at 570 nm absorbance (ClarioSTAR, BMG LabTech). […] All the results were calculated from data obtained in at least three independent experiments performed in triplicate.
(§3) Two sets of experiments were conducted in parallel for each complex to be studied:
(§4) 1. The cells were incubated with the different complexes (in the dark) for 72 h.
(§5) 2. The cells were incubated for 8 h with the different complexes (in the dark), then irradiated for 10 min, followed by an incubation in the dark up to 72 h.

[2] = test system: NIH-3T3 fibroblast cells (non-tumor); assay: Cell viability assay (MTT), dark and blue light; format: cell-based, Murine; settings: for Photosensitizing index (PI) NIH-3T3: dark vs blue light 458 nm
Procedure: as §1, §2, §3, §4, §5

[3] = UV/Vis absorption spectra; format: physicochemical; settings: room temperature; for λmax (nm) ε (M^−1 · cm^−1): air-saturated CH2Cl2 or CH2Cl2/MeOH (1:1), 50 μM, ε in brackets, sh = shoulder; for maximum absorption, lowest-lying bands in the visible region over 360 nm: CH2Cl2 or CH2Cl2/MeOH (1:1)
Procedure: UV/Vis absorption spectra were recorded at RT on solutions contained in quartz cuvettes (optical pathlength 1 cm, Hellma®) with a PerkinElmer® UV/VIS/NIR spectrophotometer Lambda 950 and a PerkinElmer® detector UV/VIS/NIR Accessory 2D Detector Module.

[4] = Lipophilicity: octanol-water partition coefficient, shake-flask method
Procedure: The octanol-water partition coefficients (P) of all the complexes were determined using a shake-flask method^8. Water (100 mL, distilled after milli-Q purification) and n-octanol (100 mL, Sigma Aldrich, ACS spectrophotometric grade, ≥99%) were shaken together for 24 h to allow saturation of both phases. Stock solutions of the compounds ([…]) were prepared in the aqueous phase. Aliquots (2 mL) of each of these stock solutions were then added to an equal volume of the n-octanol phase. The resultant biphasic solution was mixed for 15 min and then centrifuged (3000 tr/min, 5 min) to separate the phases. The concentrations of the complex in the organic and aqueous phases were then determined using UV absorbance spectroscopy (260 nm). The blank is the water saturated with n-octanol. Log P was defined as logarithm of the ratio of the concentrations of the complex in the organic and aqueous phases (values reported are the means of at least three separated determinations).
The Log P values have been determined by a classical shake-flask method.

[5] = Luminescence emission spectra and quantum yield; format: physicochemical; settings: for λem: CH2Cl2, room temperature, λexc 365 nm or 470 nm; for ΦP emission phosphorescence quantum yield: room temperature, reference POPOP in hexane or rhodamine B in ethanol
Procedure: Fluorescence and phosphorescence emission spectra were obtained with a HORIBA JOBIN YVON, fluromax-4 and spectrofluorometer.
Luminescence quantum yields were measured according to the method of Demas and Crosby, on solution samples at RT. The quantum yield is defined as: […]
Where ΦP is the quantum yield of the sample, ΦR is the know quantum yield of the reference standard. […].
The luminescence spectra of vectorized iridium(III) complexes were determined in CH2Cl2 at room temperature (Table 3).

[6] = Emission lifetime measurement; format: physicochemical
Procedure: Fluorescence lifetime measurements were performed by an Edinburgh FLS920 spectrofluorimeter equipped with a TCC900 card for data acquisition in time-correlated single-photon counting experiments (0.5 ns time resolution) with a D2 lamp and an LDH—P-C-405 pulsed diode laser. The estimated experimental error is 2 nm on the band maximum (5% on the lifetime, 10% on the fluorescence quantum yield).
The emission lifetimes of biotin-vectorized complexes (I-a) to (I-l) range from 138 ns to 411 ns, among them, the lifetime of biotin-vectorized complexes (I-c), (I-e), (I-k) are 411, 224, and 322 ns respectively. The emission lifetimes of FTS-vectorized complexes (II-a) to (II-l) range from 167 ns to 486 ns, among them, the lifetime of FTS-vectorized complexes (II-c) and (II-k) are 319 and 486 ns respectively. The emission lifetimes of PSMA-vectorized complexes (III-a) to (III-l) are in the range of 159-649 ns, among them, the lifetime of complexes (III-a) and (III-k) were 248 and 649 ns, respectively. The emission lifetimes of Fc-vectorized complexes (IV-a) to (IV-l) are in the range of 178-228 ns.

T24 bladder cancer cells = assay: Cell viability assay (MTT), dark and blue light; format: cell-based, Human
Procedure: as §1, §2, §3, §4, §5

[7] = test system: C4-2B prostate cancer cells (PSMA-positive); assay: Cell viability assay (MTT), dark and blue light; format: cell-based, Human; settings: for Photosensitizing index (PI) C4-2b: dark vs blue light 458 nm
Procedure: (§6) Cells were grown in humidified incubators at 37° C. in 5% CO2. Murine MC3T3 osteoblast and NIH-3T3 fibroblast cells-used as non-tumor cell models-were cultured in a-MEM medium and DMEM medium supplemented with 10% fetal bovine serum (FBS) and 1% Penicillin/Streptomycin (P/S) antibiotics, respectively. Human T24 bladder, MGHU3 bladder, Scaber bladder, A549 lung, MCF7 breast, MiaPaCa2 pancreas cancer cells were cultured in DMEM medium supplemented with 10% FBS and 1% P/S antibiotics. Human ASPC-1 pancreas, PC-3 prostate, DU-145 prostate, C4-2B prostate and 22rV1 prostate cancer cells were cultured in RPMI medium supplemented with 10% FBS and 1% P/S antibiotics. Human Hela cervix and HepG2 liver cancer cells were cultured EMEM medium supplemented with 10% FBS and 1% P/S antibiotics.
as §2
(§7) Irradiation was conducted using an in-house device, a series of blue light LEDs selected according to the absorption spectra of the compounds at 458 nm wavelength with an emitted power of 9.6 Watts. The light fluence was measured at 458 nm with an optical power meter Thorlabs PM100A at different distances between the cell layer and the light source (5 and 10 cm).
as §3, §4, §5

[8] = test system: PC-3 prostate cancer cells (PSMA-negative); assay: Cell viability assay (MTT), dark and blue light; format: cell-based, Human; settings: for SI (vs NIH-3T3) PC-3 Blue: blue light 458 nm; for Photosensitizing index (PI) PC-3: dark vs blue light 458 nm
Procedure: as §6, §2, §7, §3, §4, §5

[9] = 8 h in the dark, blue light 458 nm 10 min, then dark up to 72 h, read-out: GI50 NIH-3T3 Blue
[10] = in the dark, 72 h, read-out: GI50 NIH-3T3 Dark
[11] = NIH-3T3, blue light, read-out: GI50
[12] = 8 h in the dark, blue light 458 nm 10 min, then dark up to 72 h, read-out: GI50 PC-3 Blue
[13] = PC3, blue light, read-out: GI50
[14] = in the dark, 72 h, read-out: GI50 PC-3 Dark
[15] = n-octanol/water, shake-flask, mean of at least three determinations

Row | Compound | GI50 [2, 9] | Photosensitizing index (PI) NIH-3T3 [2] | GI50 [2, 10] | λmax (nm) ε (M^−1 · cm^−1) [3] | Log P [4] | λem [5] | ΦP emission phosphorescence quantum yield [5] | τ1 emission lifetime [6] | GI50 [2, 11] | GI50 ([2]; NIH-3T3, dark, read-out: GI50) | maximum absorption, lowest-lying bands in the visible region over 360 nm [3] | Photosensitizing index (PI) C4-2b [7] | GI50 [8, 12] | GI50 [8, 13] | GI50 ([8]; PC3, dark, read-out: GI50) | SI (vs NIH-3T3) PC-3 Blue [8] | Photosensitizing index (PI) PC-3 [8] | GI50 [8, 14] | Log P [4, 15] | further results
1 | F[P-](F)(F)(F)(F)F.O=C(CCCC[C@@H]1SC[C@@H]2NC(=O)N[C@@H]21)NCCCn1cc[n+]2[c]1[Ir-3]13([c]4cccc5ccc6ccc[n+]1c6c45)([c]1cccc4ccc5ccc[n+]3c5c14)[n+]1ccccc1-2 [I-i] | > 100 µM | >1 | > 100 µM | 320 (13840), 410 (3920) nm (M^−1 · cm^−1) | 0.60 ± 0.06 | 522-567 nm | <0.1% | 210 ns | – | – | – | – | – | – | – | – | – | – | – | GI50 [1]: 50.2 µM; GI50 (T24 bladder cancer cells; 8 h in the dark, blue light 458 nm 10 min, then dark up to 72 h, read-out: GI50 T24 Blue): 35.4 µM; Photosensitizing index (PI) T24 (T24 bladder cancer cells; dark vs blue light 458 nm): 1.4
2 | Cc1ccc2[c](c1)[Ir-3]13([c]4cc(C)ccc4-c4cccc[n+]41)([c]1n(CCC(=O)NCCCC[C@H](NC(=O)N[C@@H](CCC(=O)O)C(=O)O)C(=O)O)cc[n+]1-c1cccc[n+]13)[n+]1ccccc1-2.F[P-](F)(F)(F)(F)F [III-b] | > 100 µM | did not show any photosensitizing effect | > 100 µM | 310 (sh) (23310), 379 (7615) nm (M^−1 · cm^−1) | – | – | 1.8% | 194 ns | > 100 µM | > 100 µM | around 380 nm | did not show any photosensitizing effect | > 100 µM | > 100 µM | > 100 µM | 1.0 | did not show any photosensitizing effect | > 100 µM | −0.14 ± 0.04 | –
3 | COC(=O)c1cccc2[c]1[Ir-3]13([c]4c(C(=O)OC)cccc4-c4cccc[n+]41)([c]1n(CCC(=O)NCCCC[C@H](NC(=O)N[C@@H](CCC(=O)O)C(=O)O)C(=O)O)cc[n+]1-c1cccc[n+]13)[n+]1ccccc1-2.F[P-](F)(F)(F)(F)F [III-d] | > 100 µM | did not show any photosensitizing effect | > 100 µM | 370 (13650), 452 (sh) (565) nm (M^−1 · cm^−1) | – | 498 nm | 2.1% | 219 ns | > 100 µM | > 100 µM | around 370 nm | did not show any photosensitizing effect | > 100 µM | > 100 µM | > 100 µM | 1.0 | did not show any photosensitizing effect | > 100 µM | −0.52 ± 0.01 | –
4 | F[P-](F)(F)(F)(F)F.O=C(O)CC[C@H](NC(=O)N[C@@H](CCCCNC(=O)CCn1cc[n+]2[c]1[Ir-3]13([c]4ccccc4-c4ccc5ccccc5[n+]41)([c]1ccccc1-c1ccc4ccccc4[n+]13)[n+]1ccccc1-2)C(=O)O)C(=O)O [III-g] | > 100 µM | – | > 100 µM | 334 (18100), 436 (4280) nm (M^−1 · cm^−1) | 0.33 ± 0.01 | 593 nm | 0.1% | 191 ns | > 100 µM | > 100 µM | – | – | 48.7 µM | 48.7 µM | > 100 µM | >2.1 | – | ≥ 100 µM | – | GI50 ([7]; 8 h in the dark, blue light 458 nm 10 min, then dark up to 72 h, read-out: GI50 C4-2b Blue): 17.6 µM; GI50 ([7]; C4-2b, blue light, read-out: GI50): 17.6 µM; Photosensitizing index (PI) ([7]; C4-2b, dark vs blue light): 1.2; GI50 ([7]; C4-2b, dark, read-out: GI50): 21.3 µM; SI (vs NIH-3T3) C4-2b Blue ([7]; blue light 458 nm): >5.7; GI50 ([7]; in the dark, 72 h, read-out: GI50 C4-2b Dark): 21.3 µM; Photosensitizing index (PI) ([8]; PC3, dark vs blue light): >2.1
